According to patent US9394260B2, “Pyrimidinone carboxamide inhibitors of endothelial lipase” (BRISTOL-MYERS SQUIBB COMPANY, priority 2012, dated 2016):

Target: T1, endothelial lipase (EL) (Homo sapiens, UniProt Q9Y5X9)
T1 construct: transformed by RAGE technology (Athersys) to overexpress endogenous EL; endogenous in cells; conditioned medium used as the enzyme source
T1 sequence (Q9Y5X9 21-500): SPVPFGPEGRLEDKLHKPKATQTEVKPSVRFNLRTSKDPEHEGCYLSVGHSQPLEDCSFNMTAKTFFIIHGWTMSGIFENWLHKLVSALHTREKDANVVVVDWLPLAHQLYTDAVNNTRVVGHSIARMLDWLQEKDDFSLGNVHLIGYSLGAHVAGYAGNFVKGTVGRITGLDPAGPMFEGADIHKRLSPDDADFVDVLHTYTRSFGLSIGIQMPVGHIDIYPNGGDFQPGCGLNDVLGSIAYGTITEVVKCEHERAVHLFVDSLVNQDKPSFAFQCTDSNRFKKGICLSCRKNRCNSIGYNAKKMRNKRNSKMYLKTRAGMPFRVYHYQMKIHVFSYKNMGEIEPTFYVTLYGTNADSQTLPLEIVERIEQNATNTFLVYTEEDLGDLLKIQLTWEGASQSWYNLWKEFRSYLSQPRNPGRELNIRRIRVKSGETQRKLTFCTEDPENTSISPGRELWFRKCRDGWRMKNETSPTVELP
Experiment: Endothelial lipase (EL) enzymatic assay with fluorescent substrate A10070 in DMPG vesicles
Assay type: biochemical
Settings: conditioned media from HT-1080 cells overexpressing endogenous EL, 20 min preincubation at 37° C.
Procedure: Endothelial lipase activity was measured using a fluorescent substrate, A10070, (Invitrogen, CA) doped into an artificial vesicle containing DMPG (Avanti Polar Lipids) as the excipient. Vesicles were prepared by combining 285 μL of 1 mM DMPG in a 1:1 mixture of MeOH and CHCl3 with 15 μL of 1 mM A10070 in a 1:1 mixture of MeOH and CHCl3. The mixture was dried under nitrogen and resuspended in 150 μL of 50 mM HEPES pH 8.0 buffer containing 100 mM NaCl and 0.2 mM EDTA. The sample was allowed to sit at rt for 15 min and then was sonicated 3×4 mins on ice with a Branson Sonicator using duty cycle 1. This preparation provides vesicles with a mole fraction of 0.05 for the FRET substrate.
The enzymatic assay was measured using white, opaque 96-well half area plates. Each well contained 60 μL of assay buffer (50 mM HEPES pH 8.0, 50 mM NaCl and 1 mM CaCl2) and 2 ul of a DMSO solution containing compound of interest. Conditioned media obtained from HT-1080 cells, which were transformed by RAGE technology (Athersys) to overexpress endogenous EL, was added and the reaction was allowed to incubate for 20 min at 37° C. with gentle agitation. The reaction was started by the addition of 20 μL of a 1:4 dilution of vesicles. The final total reaction volume was 100 μL. The reaction rates were measured on a Gemini plate reader with an excitation wavelength of 488 nm and a emission of 530 nm. Readings were taken every 20 seconds for 10 min with agitation between each reading. The slope of the linear portion of the readout was used to calculate the rate of the reaction.
The exemplified examples disclosed in the present invention were tested in the EL assay described above and found having EL inhibitory activity. A range of EL IC50 values of ≦10 μM (10000 nM) was observed.

| Structure (SMILES) | IC50 [nM] |
| --- | --- |
| C[C@H](CCc1cccc(C(F)(F)F)c1)NC(=O)c1[nH]c(=O)[nH]c(=O)c1N [Example 1, (R)-5-Amino-2,6-dioxo-N-(4-(3-(trifluoromethyl)phenyl)butan-2-yl)-1,2,3,6-tetrahydropyrimidine-4-carboxamide] | 80 |
| Nc1c(C(=O)NCCCc2ccc(Cl)c(Cl)c2)[nH]c(=O)[nH]c1=O [Example 2, 5-amino-N-(3-(3,4-dichlorophenyl)propyl)-2,6-dioxo-1,2,3,6-tetrahydropyrimidine-4-carboxamide] | 149 |
| C[C@@H](NC(=O)c1[nH]c(=O)[nH]c(=O)c1N)c1ccc2ccccc2c1 [Example 14, (R)-5-amino-N-(1-(naphthalen-2-yl)ethyl)-2,6-dioxo-1,2,3,6-tetrahydropyrimidine-4-carboxamide] | 7510 |
| CC(CNC(=O)c1[nH]c(=O)[nH]c(=O)c1N)Oc1ccc(F)cc1 (stereo not drawn) [Example 15, 5-amino-N-(2-(4-fluorophenoxy)propyl)-2,6-dioxo-1,2,3,6-tetrahydropyrimidine-4-carboxamide] | 9930 |
| Nc1c(C(=O)NCc2cccc(-c3ccc(F)cc3)c2)[nH]c(=O)[nH]c1=O [Example 25, 5-amino-N-((4′-fluorobiphenyl-3-yl)methyl)-2,6-dioxo-1,2,3,6-tetrahydropyrimidine-4-carboxamide] | 4250 |
| Nc1c(C(=O)NCc2cccc(-n3cnc4ccccc43)c2)[nH]c(=O)[nH]c1=O [Example 28, N-(3-(1H-benzo[d]imidazol-1-yl)benzyl)-5-amino-2,6-dioxo-1,2,3,6-tetrahydropyrimidine-4-carboxamide] | 2200 |
| Nc1c(C(=O)NC[C@H]2C[C@@H]2c2ccc(F)cc2)[nH]c(=O)[nH]c1=O [Example 29, 5-amino-N-(((1S,2S)-2-(4-fluorophenyl)cyclopropyl)methyl)-2,6-dioxo-1,2,3,6-tetrahydropyrimidine-4-carboxamide] | 7400 |
| Nc1c(C(=O)NCc2c[nH]nc2-c2ccccc2)[nH]c(=O)[nH]c1=O [Example 30, 5-amino-2,6-dioxo-N-((3-phenyl-1H-pyrazol-4-yl)methyl)-1,2,3,6-tetrahydropyrimidine-4-carboxamide] | 612 |
| Nc1c(C(=O)NCc2ccc(Oc3ccccc3)cc2)[nH]c(=O)[nH]c1=O [Example 32, 5-amino-2,6-dioxo-N-(4-phenoxybenzyl)-1,2,3,6-tetrahydropyrimidine-4-carboxamide] | 703 |
| CC(C)(C)OC(=O)N1CCN(c2cccc(CNC(=O)c3[nH]c(=O)[nH]c(=O)c3N)c2)CC1 [Example 33, tert-butyl 4-(3-((5-amino-2,6-dioxo-1,2,3,6-tetrahydro-pyrimidine-4-carboxamido)methyl)phenyl)piperazine-1-carboxylate] | 266 |
| Nc1c(C(=O)NCC2CCN(S(=O)(=O)c3ccc(Cl)c(Cl)c3)CC2)[nH]c(=O)[nH]c1=O [Example 37, 5-amino-N-((1-(3,4-dichloro-phenylsulfonyl)piperidin-4-yl)methyl)-2,6-dioxo-1,2,3,6-tetrahydropyrimidine-4-carboxamide] | 3170 |
| Nc1c(C(=O)NCC2CCN(C(=O)c3ccccc3)C2)[nH]c(=O)[nH]c1=O (stereo not drawn) [Example 44, 5-amino-N-((1-benzoylpyrrolidin-3-yl)methyl)-2,6-dioxo-1,2,3,6-tetrahydropyrimidine-4-carboxamide] | 3070 |
| COc1cc(C)c(OC)c2c1CC(CNC(=O)c1[nH]c(=O)[nH]c(=O)c1N)CC2 (stereo not drawn) [Example 45, 5-amino-N-((5,8-dimethoxy-6-methyl-1,2,3,4-tetra-hydronaphthalen-2-yl)methyl)-2,6-dioxo-1,2,3,6-tetrahydropyrimidine-4-carboxamide] | 78 |
| Nc1c(C(=O)NCC2Cc3ccccc3C(c3ccccc3)C2)[nH]c(=O)[nH]c1=O (stereo not drawn) [Example 46, 5-amino-2,6-dioxo-N-((4-phenyl-1,2,3,4-tetrahydronaphthalen-2-yl)methyl)-1,2,3,6-tetrahydropyrimidine-4-carboxamide] | 207 |
| Nc1c(C(=O)NCC2CCc3nn(Cc4ccccc4)cc3C2)[nH]c(=O)[nH]c1=O (stereo not drawn) [Example 50, 5-amino-N-((2-benzyl-4,5,6,7-tetrahydro-2H-indazol-5-yl)methyl)-2,6-dioxo-1,2,3,6-tetrahydropyrimidine-4-carboxamide] | 2480 |
| C[C@H](COc1c(Cl)cccc1Cl)NC(=O)c1[nH]c(=O)[nH]c(=O)c1N [Example 54, (R)-5-amino-N-(1-(2,6-dichloro-phenoxy)propan-2-yl)-2,6-dioxo-1,2,3,6-tetra-hydropyrimidine-4-carboxamide] | 11 |
| C[C@H](COc1ccc(Cl)c2c1CCC2)NC(=O)c1[nH]c(=O)[nH]c(=O)c1N [Example 65, (R)-5-amino-N-(1-(7-chloro-2,3-dihydro-1H-inden-4-yloxy)propan-2-yl)-2,6-dioxo-1,2,3,6-tetrahydropyrimidine-4-carboxamide] | 223 |
| C[C@H](COc1ccc(Cl)cc1F)NC(=O)c1[nH]c(=O)[nH]c(=O)c1N [Example 72, (R)-5-amino-N-(1-(4-chloro-2-fluoro-phenoxy)propan-2-yl)-2,6-dioxo-1,2,3,6-tetrahydropyrimidine-4-carboxamide] | 1390 |
| Cc1nc2cc(OC[C@@H](C)NC(=O)c3[nH]c(=O)[nH]c(=O)c3N)ccc2s1 [Example 84, (R)-5-amino-N-(1-(2-methyl-benzo[d]thiazol-5-yloxy)propan-2-yl)-2,6-dioxo-1,2,3,6-tetrahydropyrimidine-4-carboxamide] | 2000 |
| C[C@H](COc1ccc(Cl)cc1C(=O)c1ccccc1)NC(=O)c1[nH]c(=O)[nH]c(=O)c1N [Example 88, (R)-5-amino-N-(1-(2-benzoyl-4-chlorophenoxy)propan-2-yl)-2,6-dioxo-1,2,3,6-tetrahydropyrimidine-4-carboxamide] | 509 |
| C[C@H](COc1ccc(S(C)(=O)=O)cc1)NC(=O)c1[nH]c(=O)[nH]c(=O)c1N [Example 103, (R)-5-amino-N-(1-(4-(methylsulfonyl)phenoxy)pro-pan-2-yl)-2,6-dioxo-1,2,3,6-tetrahydropyrimidine-4-carboxamide] | 559 |
| C[C@H](COc1ccccc1-c1nnco1)NC(=O)c1[nH]c(=O)[nH]c(=O)c1N [Example 115, (R)-N-(1-(2-(1,3,4-oxadiazol-2-yl)phenoxy)propan-2-yl)-5-amino-2,6-dioxo-1,2,3,6-tetra-hydropyrimidine-4-carboxamide] | 4990 |
| C[C@H](COc1ccc2c(c1)NC(=O)CC2)NC(=O)c1[nH]c(=O)[nH]c(=O)c1N [Example 120, (R)-5-amino-2,6-dioxo-N-(1-(2-oxo-1,2,3,4-tetrahydroquinolin-7-yloxy)propan-2-yl)-1,2,3,6-tetrahydropyrimidine-4-carboxamide] | 5400 |
| C[C@@H](NC(=O)c1[nH]c(=O)[nH]c(=O)c1N)c1cccc(-c2ccn(Cc3ccccc3)n2)c1 [Example 136, (R)-5-amino-N-(1-(3-(1-benzyl-1H-pyrazol-3-yl)phenyl)ethyl)-2,6-dioxo-1,2,3,6-tetrahydro-pyrimidine-4-carboxamide] | 20 |
| C[C@@H](NC(=O)c1[nH]c(=O)[nH]c(=O)c1N)c1cccc(-c2cnn(Cc3cccc(C(N)=O)c3)c2)c1 [Example 141, (R)-5-amino-N-(1-(3-(1-(3-carbamoylbenzyl)-1H-pyrazol-4-yl)phenyl)ethyl)-2,6-dioxo-1,2,3,6-tetrahydro-pyrimidine-4-carboxamide] | 883 |
| C[C@@H](NC(=O)c1[nH]c(=O)[nH]c(=O)c1N)c1cc(-c2cnn(Cc3ccccc3)c2)ccc1O [Example 143, (R)-5-amino-N-(1-(5-(1-benzyl-1H-pyrazol-4-yl)-2-hydroxyphenyl)ethyl)-2,6-dioxo-1,2,3,6-tetrahydro-pyrimidine-4-carboxamide] | 6960 |
| C[C@@H](NC(=O)c1[nH]c(=O)[nH]c(=O)c1N)c1cccc(-c2cnn(CCc3c[nH]c4ccccc34)c2)c1 [Example 155, (R)-N-(1-(3-(1-(2-(1H-indol-3-yl)ethyl)-1H-pyrazol-4-yl)phenyl)ethyl)-5-amino-2,6-dioxo-1,2,3,6-tetrahydro-pyrimidine-4-carboxamide] | 422 |
